Columns and labels:
[1] = tested on: 6-OHDA lesioned Wistar rats; assay: Rat unilateral 6-OHDA model of Parkinson's disease, initiation time (IT) test; format: in vivo; details: D11, 10 mg/kg IP once daily for 15 days, t test, vs 6-OHDA/Vehicle
Procedure: (§1) Fifty adult male Wistar rats were used. The rats from different groups (G1 to G5) were randomized. At the beginning of the study, the rats were about 5 weeks old and naive to previous administration of any drug.
(§2) A stereotaxic injection of 6-OHDA (G2 to G5) or saline (G1: sham group) was performed to induce a unilateral dopaminergic lesion on day 0 (D0). Surgery was performed on D0 under ketamine (50 mg/kg) and xylazine (10 mg/kg). The rats of G2 to G5 received a unilateral injection of 6-OHDA (6 μL) in the left substantia nigra pars compacta. Jouve et al., J. Neurosci. 2010, 30, 9919-9928. The rats of the G1 sham group were injected with saline. During surgery, local analgesia was achieved using subcutaneous injections of lidocaine. At the end of surgery, the rats were treated with buprenorphine (0.05 mg/kg, S.C.).
The IT test was performed both before the 6-OHDA lesion induction on D0 and on day 11 (D11) after the 6-OHDA lesion induction. Around six days (D−6) before the 6-OHDA lesion induction, the IT test was performed eight consecutive times for each limb of each rat to obtain baseline values. On D11, the IT test was performed one hour after the rats were dosed. For every test, only one of the two forelimbs of each rat was left free to move and the time that is necessary to initiate the movement toward a plane surface was recorded using 180 sec as break-off point. […]

ob/ob mice [2] = assay: Insulin tolerance test (ITT); format: in vivo, mouse; details: day 10 post-injection, compared with vehicle
Procedure: (§3) Both glucose (GTT) and insulin (ITT) tolerance tests were performed following a 10-hr fast and an additional 2-hr after CDNs injection with baseline blood glucose measurement taken before the beginning of the test. For the GTT, D-glucose dissolved in 0.9% NaCl was delivered intraperitoneally at a dose of 1 g/kg. The blood glucose level was measured 0, 15, 30, 60, 90, and 120 min after glucose administration. For the ITT, insulin was administered intraperitoneally at a dose of 1 IU/kg. The blood glucose level was measured 0, 15, 30, 60, 90, and 120 min after insulin administration. Glucose levels were measured in blood samples drawn from the tail vein using OneTouch Ultra 2 Meter (LifeScan, Inc.).

SERCA = assay: Ca-ATPase assay, microsomal preparations from HEK 293 cells; format: biochemical, human
Procedure: A Ca-ATPase assay was performed using microsomal preparations from HEK 293 cells at a series of calcium concentrations corresponding to the physiological range, relative to controls. The ATP hydrolysis rate was measured over a range of calcium concentrations in the presence of test compounds using an NADH-linked, enzyme-coupled ATPase assay adapted for 96-well microplates, with Vmax determined by fitting the ATPase calcium-dependence to the Hill function. […] CaCl2 was added to set free [Ca^2+] to the specific values.

[3] = tested on: 6-OHDA lesioned Wistar rats; assay: Rat unilateral 6-OHDA model of Parkinson's disease, stepping test; format: in vivo; details: D11, 10 mg/kg IP once daily for 15 days; 6-OHDA/Vehicle 1.19±0.24 steps
Procedure: as §1, §2
The stepping test was performed after IT test, both before the 6-OHDA lesion induction on D0 and on D11. Around D−6, the stepping test was performed eight consecutive times for the right paw of each animal to obtain baseline values. On D11, the stepping test was performed one hour after the rats were dosed. Each rat was hold by an experimenter and only one of the two forelimbs was left free to move above a plane surface and the other was held with the paw touching the table. The rats were then to be moved slowly forward by the experimenter. The number of adjusting steps was countered for the right paw. Olsson et al., J. Neurosci. 1995, 15, 3863-3875.
L-DOPA and benserazide (a peripheric DOPA decarboxylase inhibitor) were prepared together as a single solution containing 0.9% NaCl and 0.1% ascorbic acid.
All the dosings were given via the IP route, once daily, Sunday excluded.

[4] = Pharmacokinetics of compound A12 in Sprague Dawley rats; format: in vivo, rat; details: oral, 2 mg/kg P.O.
Procedure: Pharmacokinetics of a test compound, compound A12, was assessed in Sprague Dawley rats. The compound was formulated at 1 mg/mL in DMSO/Tween 80/water (10/10/80, vol/vol/vol) and dosed at 1 mg/kg intravenous (i.v.) or 2 mg/kg by oral gavage (P.O.) in triplicate. Blood was drawn at 5 min, 15 min, 30 min, 1 hr, 2 hrs, 4 hrs, 6 hrs, and 8 hrs into EDTA containing tubes and plasma was harvested by centrifugation. Plasma (25 μL) was treated with acetonitrile (125 μL) containing an internal standard. The sample was then centrifuged for 5 min at 4,000 rpm in a tabletop centrifuge and the filtrate was collected. The filtrate was injected onto a Thermo Betasil C18 HPLC column 5μ (50×2.1 mm). Mobile Phase A was water with 0.1% formic acid. Mobile Phase B was acetonitrile with 0.1% formic acid. Separation was achieved using a gradient of 90% A/10% B to 5% A/95% B over 7 min. An API Sciex 4000 equipped with a turbo ion spray source was used for all analytical measurements. A positive ion MRM method was developed. Peak areas of the product ion were measured against the peak areas of the internal standard. Data was fit using WinNonLin (Pharsight Corporation, Mountain View, Calif.).

ob/ob mice [5] = assay: Glucose tolerance test (GTT); format: in vivo, mouse; details: day 7 post-injection, compared with vehicle
Procedure: as §3

APP-PS1 mice = assay: Alzheimer's disease model, Aβ deposition (Thioflavin S staining); format: in vivo, mouse; details: 10 mg/kg ip for 4 weeks, vs saline
Procedure: PS1/APP mice (PS1M146V and APPSWE) (Howlett et al., Brain Res. 2004, 1017, 130-136) were used. Age-matched NTg controls were on the same background strain (C57bl6/J9).
Mice were transcardially perfused with ice-cold PBS (3 mL) followed by 4% paraformaldehyde (5 mL). Brains were extracted and fixed overnight in 30% sucrose-cryoprotectant solution. Coronal hippocampal sections 40 μm thick were cut on a cryostat and collected in TBS (0.1 M Tris, 0.9% saline, pH 7.4).
Free-floating hippocampal sections were washed with TBS (4×3 min). The sections were soaked in 0.5% thioflavin S (in 50/50 ethyl alcohol/distilled water, Sigma-Aldrich) for 10 min, followed by 2×3 min washes with 50% ethyl alcohol. Sections were washed again with TBS (2×3 min), mounted with minimal drying, and coverslipped with anti-fade mounting medium PVA-DABCO for microscopy.
Confocal images of immunolabeled tissue were obtained using 4× and 10× objective lenses on the Olympus Fluoview confocal microscope. Density of amyloid plaques was quantified by averaging the percent area staining positive (thresholded above background staining, as determined by software parameters and experimenter confirmation) within the hippocampus and cortex from 3-5 sections from each experimental animal using MetaMorph Software (Molecular Devices). […]

Cc1ccc2cccc(NC(=O)c3ccc(OC(C)C)cc3)c2n1 [Compound A12, 4-Isopropoxy-N-(2-methylquinolin-8-yl)benzamide]
akinesia measured in the IT test [1]: statistically significant improvement | insulin-stimulated glucose deposal (ITT) (ob/ob mice [2]): strongly enhanced | Vmax of a SERCA (SERCA): significantly increased | number of adjusting steps [3]: 6.94±0.86 steps | T112 [4]: 1.17 h | hyperglycemic response to the i.p. glucose challenge (GTT) (ob/ob mice [5]): significantly reduced | amyloid plaques stained with Thioflavin S (APP-PS1 mice): reduced

Source: patent US20170281611A1, “QUINOLINES AND THEIR USE FOR TREATING ENDOPLASMIC RETICULUM STRESS-CAUSED DISEASES” (EIGER BIOPHARMACEUTICALS, INC., priority 2014, published 2017)
